Assay results as given in patent publication US12138254B2, “Chronic nightly dosing of lasmiditan for migraine prevention” (Eli Lilly and Company, priority 2018, dated 2024).
Like-named read-outs stand apart in the source and are kept apart here.

Tests used:
[1] = test system: patients with migraine; conditions: cited from earlier work; for pain freedom (primary) and MBS freedom (key secondary) at 2 hours vs placebo: Phase 3 trials, all doses (50, 100, 200 mg); for proportion of patients headache pain-free / proportion of patients most bothersome symptom (MBS)-free: lasmiditan 200 mg, 2 hours post-first dose, p<0.001
[2] = test system: dural plasma protein extravasation; experiment: Trigeminal stimulation-induced dural plasma protein extravasation (PPE) in rats; format: in vivo, Sprague-Dawley rats
Excerpt: Migraine is a painful condition thought to involve neurogenic inflammation of the dural membrane and activation of the trigeminal nervous system. The 5-HT1F receptor is widely expressed in the CNS and peripheral nerves, including the trigeminal ganglia, dorsal root ganglia and trigeminal nucleus caudalis. Plasma protein extravasation (PPE), one component of neurogenic inflammation, can be induced in the dura of rats by electrically stimulating the trigeminal ganglion. Considering the role of the trigeminal nerve in the physiology of migraine, this study is useful to characterize the ability of lasmiditan-hemisuccinate to block plasma protein extravasation in the dura of rats following electrical stimulation of the trigeminal ganglion.
To investigate the potential of lasmiditan to modify the dysfunction in the target tissue, the duration of effect following a single oral dose of lasmiditan-hemisuccinate was also determined. Electrical stimulation of the trigeminal ganglion of rats and guinea pigs can be used to induce neurogenic inflammation in the meninges (dura). Briefly, unilateral electrical stimulation of either the left or right trigeminal ganglion using electrodes implanted stereotaxically is used to induce ipsilateral neurogenic inflammation and the increased extravasation of plasma proteins.
Lasmiditan-hemisuccinate is dissolved in sterile water. All doses of lasmiditan are reported as free base equivalent doses, accounting for the weight of the salt. Envigo Sprague-Dawley, Sprague-Dawley male rats (250-350 grams, n=4/group) are fasted overnight prior to dosing. The animals are orally gavaged (2 mL/kg dose volume) with test compound or vehicle one hour prior to stimulation time and returned to their cages with only water available. Approximately 50 minutes post-dosing, the rats are anesthetized with Nembutal (65 mg/kg, ip.) and implanted with stainless steel stimulating electrodes (Rhodes Medical Systems, Inc.) to a depth of 9.2 mm. from the dura. The femoral vein is exposed and fluorescein isothiocyanate-labeled bovine serum albumin (FITC-BSA) (20 mg/kg, iv.), is injected into the femoral vein 2 minutes prior to stimulation. The FITC-BSA functions as a marker for protein extravasation. The left trigeminal ganglion is stimulated for 5 minutes at a current intensity of 1.0 mA (5 Hz, 5 msec pulse duration) with a Model S48 Grass Instrument Stimulator with PSIU6 photoelectric isolation unit (Grass-Telefactor). Five minutes following stimulation, a blood sample is collected by cardiac puncture and the rats are sacrificed by exsanguination with 40 ml of saline. One milliliter of blood is collected and placed in a 1.5 ml EDTA coated tube (Fisher Cat. #540734) on ice. Plasma is separated via centrifugation at 10,000 rpm (941 g) for thirty minutes at 4° C. The top of the skull is removed to collect the brain and dural membranes. The brain and plasma samples are frozen at −80° C. until thawed for compound quantification. The membrane samples are removed from both hemispheres, rinsed with water, and spread flat on microscope slides. The slides are dried for 15 minutes on a slide warmer, then the tissues are cover-slipped with a 70% glycerol/water solution. A fluorescence microscope (Zeiss) equipped with a grating monochromator and a spectrophotometer is used to quantify the amount of FITC-BSA dye in each dural sample. The extravasation induced by electrical stimulation of the trigeminal ganglion is an ipsilateral effect (i.e. occurs only on the side of the dura in which the trigeminal ganglion was stimulated). This allows the other (unstimulated) half of the dura to be used as the control. The ratio of extravasation in the dura from the stimulated side versus the unstimulated side is calculated and reported as the extravasation ratio for each animal. The mean extravasation ratio and standard error of the mean (SEM) are calculated for each treatment group. Controls yield a ratio of approximately 1.8. […]

CN1CCC(C(=O)c2cccc(NC(=O)c3c(F)cc(F)cc3F)n2)CC1 [Lasmiditan, 2,4,6-trifluoro-N-[6-(1-methyl-piperidin-4-ylcarbonyl)-pyridin-2-yl]-benzamide]
most frequently reported / most common TEAEs ([1]; Phase 3 studies, b6: ≥2% and greater than placebo after the first dose): dizziness, paresthesia, somnolence, fatigue, and nausea
severity of TEAEs ([1]; Phase 3 studies): mild or moderate
pain freedom (primary) and MBS freedom (key secondary) at 2 hours vs placebo [1]: statistically significant superiority over placebo
pain freedom (primary) and MBS freedom (key secondary) at 2 hours vs placebo ([1]; listed as lasmiditan): significantly higher rates
proportion of patients headache pain-free ([1]; SAMURAI, placebo 15.3%): 32.2%
proportion of patients most bothersome symptom (MBS)-free ([1]; SAMURAI, placebo 29.5%): 40.7%
proportion of patients headache pain-free ([1]; SPARTAN, placebo 21.3%): 38.8%
proportion of patients most bothersome symptom (MBS)-free ([1]; SPARTAN, placebo 33.5%): 48.7%
headache pain-free and MBS-free at 2 hours compared to placebo ([1]; lasmiditan 100 mg, 50 mg dose groups): significance was also noted
inhibition of dural plasma protein extravasation vs vehicle ([2]; 0.1 mg/kg po, 1 hour post-dose): non-efficacious
inhibition of dural plasma protein extravasation vs vehicle ([2]; single 10 mg/kg po, 24 hours post-dose): equally efficacious
inhibition of dural plasma protein extravasation vs vehicle ([2]; single 10 mg/kg po, 48 hours post-dose): not at 48 hours
